Holding throughout (assay type): cell-based
One assay has as its target T1, hGIPR (Homo sapiens, UniProt P48546).
T1 construct: expressed in transfected cells
T1 sequence (P48546 22-466): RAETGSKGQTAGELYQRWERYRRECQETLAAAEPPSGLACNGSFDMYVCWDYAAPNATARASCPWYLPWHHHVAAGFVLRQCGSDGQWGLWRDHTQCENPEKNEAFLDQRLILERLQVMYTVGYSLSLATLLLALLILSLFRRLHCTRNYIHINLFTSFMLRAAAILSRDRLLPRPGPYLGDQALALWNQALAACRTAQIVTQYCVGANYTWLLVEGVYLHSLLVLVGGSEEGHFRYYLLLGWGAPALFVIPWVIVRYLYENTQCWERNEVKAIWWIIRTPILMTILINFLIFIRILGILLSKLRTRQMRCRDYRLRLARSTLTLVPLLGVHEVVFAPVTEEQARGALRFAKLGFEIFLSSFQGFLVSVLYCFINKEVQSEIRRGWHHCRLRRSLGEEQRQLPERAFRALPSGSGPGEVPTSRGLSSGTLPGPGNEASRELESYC
Briefly: Functional cAMP formation (HTRF) in HEK-293 clonal cells expressing hGIPR, 0.1% bovine casein, without or with 1.0% human serum albumin. Particulars: for EC50: cAMP. The method in brief:
(§1)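 Cells were stimulated with peptide for 30 min at 37° C, then intracellular cAMP was measured by competitive HTRF (665/620 nm ratio) and converted to nM using a cAMP standard curve. Relative EC50 and Emax came from four-parameter logistic fits of percent maximal response against peptide concentration.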
A general note: Changes in cAMP serve as a functional read-out for many G protein-coupled receptors.

The target in the next assay is hGLP-1R (Homo sapiens, UniProt P43220). Briefly: Functional cAMP formation (HTRF) in HEK-293 clonal cells expressing hGLP-1R, 0.1% bovine casein, without or with 1.0% human serum albumin. On the set-up: expressed in transfected cells. The note with it: for EC50: cAMP; for Emax: percent of maximal response to GLP-1(7-36)NH2. The gist of the method:
as §1

A further assay deals with T2, hGCGR (Homo sapiens, UniProt P47871).
T2 construct: expressed in transfected cells
T2 sequence (P47871 26-477): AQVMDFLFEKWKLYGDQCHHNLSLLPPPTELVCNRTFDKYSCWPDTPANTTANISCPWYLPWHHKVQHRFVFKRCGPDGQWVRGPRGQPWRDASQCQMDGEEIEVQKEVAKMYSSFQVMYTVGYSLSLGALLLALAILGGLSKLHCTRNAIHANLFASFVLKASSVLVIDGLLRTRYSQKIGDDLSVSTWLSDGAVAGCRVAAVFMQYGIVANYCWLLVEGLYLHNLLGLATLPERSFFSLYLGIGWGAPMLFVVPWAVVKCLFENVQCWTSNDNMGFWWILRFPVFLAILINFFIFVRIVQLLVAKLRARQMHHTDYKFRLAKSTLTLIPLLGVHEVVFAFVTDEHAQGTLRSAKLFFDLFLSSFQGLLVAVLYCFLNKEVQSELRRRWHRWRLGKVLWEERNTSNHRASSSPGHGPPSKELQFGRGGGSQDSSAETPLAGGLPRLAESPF
Briefly: Functional cAMP formation (HTRF) in HEK-293 clonal cells expressing hGCGR, 0.1% bovine casein, without or with 1.0% human serum albumin. The method in brief: as §1

Setting [1] is: hGIPR EC50, nM (SEM, n), incubated at 37° C., 0.1% bovine casein (no human serum albumin), geometric mean.
The mark [2] stands for this setting: hGLP-1R EC50, nM (SEM, n), incubated at 37° C., 0.1% bovine casein (no human serum albumin), geometric mean.
Setting [3] is: hGCGR EC50, nM (SEM, n), cAMP, incubated at 37° C., 0.1% bovine casein (no human serum albumin), geometric mean.

The values that follow come from patent publication US20230265151A1, “GIP/GLP1 CO-AGONIST COMPOUNDS” (priority 2020, published 2023).

Usually Emax stands for the greatest response seen or fitted, relative to the assay's reference. As a reminder, the EC50 is the midpoint of the concentration-response curve.

Where two headings read alike, the source gives them in different places.

Sequence of hGLP-1R (P43220 24-463): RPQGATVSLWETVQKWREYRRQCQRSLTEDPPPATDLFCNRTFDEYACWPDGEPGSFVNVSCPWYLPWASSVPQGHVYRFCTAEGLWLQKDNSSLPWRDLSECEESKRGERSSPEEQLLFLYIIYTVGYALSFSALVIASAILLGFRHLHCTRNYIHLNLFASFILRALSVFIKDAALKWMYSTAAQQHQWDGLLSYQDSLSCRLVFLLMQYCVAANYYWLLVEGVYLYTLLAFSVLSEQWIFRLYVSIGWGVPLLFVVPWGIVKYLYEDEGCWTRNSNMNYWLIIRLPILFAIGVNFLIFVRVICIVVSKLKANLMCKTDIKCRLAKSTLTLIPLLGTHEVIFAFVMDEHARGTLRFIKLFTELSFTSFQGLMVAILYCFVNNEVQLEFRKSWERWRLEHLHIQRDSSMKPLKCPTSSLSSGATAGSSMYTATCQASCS

Consider `CC[C@H](C)[C@H](NC(=O)[C@H](CC(C)C)NC(=O)[C@](C)(Cc1ccc(O)cc1)NC(=O)[C@H](CCCCNC(=O)COCCOCCNC(=O)COCCOCCNC(=O)CC[C@H](NC(=O)CCCCCCCCCCCCC(=O)O)C(=O)O)NC(=O)[C@@H](NC(=O)[C@](C)(Cc1ccccc1)NC(=O)[C@H](CCC(=O)O)NC(=O)C(C)(C)NC(=O)[C@H](CCC(N)=O)NC(=O)[C@H](C)NC(=O)[C@H](CCCCNC(=O)COCCOCCNC(=O)COCCOCCNC(=O)CC[C@H](NC(=O)CCCCCCCCCCCCC(=O)O)C(=O)O)NC(=O)[C@H](CCCN)NC(=O)[C@H](CC(=O)O)NC(=O)[C@H](CC(C)C)NC(=O)[C@](C)(CC(C)C)NC(=O)[C@@H](NC(=O)[C@H](CO)NC(=O)[C@H](Cc1ccncc1)NC(=O)[C@H](CC(=O)O)NC(=O)[C@H](CO)NC(=O)[C@@H](NC(=O)[C@](C)(Cc1ccccc1F)NC(=O)[C@@H](NC(=O)CNC(=O)[C@H](CCC(=O)O)NC(=O)C(C)(C)NC(=O)[C@@H](N)Cc1ccc(O)cc1)[C@@H](C)O)[C@@H](C)O)[C@@H](C)CC)[C@@H](C)CC)C(=O)N[C@@H](CCC(=O)O)C(=O)NCC(=O)NCC(=O)N1CCC[C@H]1C(=O)N[C@@H](CO)C(=O)N[C@@H](CO)C(=O)NCC(=O)N[C@@H](C)C(=O)N1CCC[C@H]1C(=O)N1CCC[C@H]1C(=O)N1CCC[C@H]1C(=O)N[C@@H](CO)C(N)=O` [Example 82], for which the maximal response (Emax) on hGIPR (HEK293, read-out: hGIPR Emax, % ± SEM, percent of maximal response to GIP(1-42)NH2, 37° C., 0.1% bovine casein, arithmetic mean) stood at 81.4 ± 6.09%. In addition, the 50% effective concentration (EC50) at hGIPR (setting [1]) is 0.0206 nM; on hGLP-1R (setting [2]), 4.78 nM; at hGCGR (setting [3]), > 9950 nM.

As for `CC[C@H](C)[C@H](NC(=O)[C@H](CC(C)C)NC(=O)[C@](C)(Cc1ccc(O)cc1)NC(=O)[C@H](CCCCNC(=O)CCOCCOCCOCCOCCOCCNC(=O)CC[C@H](NC(=O)CCCCCCCCCOc1ccc(C(=O)O)cc1)C(=O)O)NC(=O)[C@@H](NC(=O)[C@H](Cc1ccccc1)NC(=O)[C@H](CCCN)NC(=O)C(C)(C)NC(=O)[C@H](CCC(N)=O)NC(=O)[C@H](C)NC(=O)[C@H](CCC(N)=O)NC(=O)[C@H](CCCN)NC(=O)[C@H](CC(=O)O)NC(=O)[C@H](CC(C)C)NC(=O)[C@](C)(CC(C)C)NC(=O)[C@@H](NC(=O)C(C)(C)NC(=O)[C@H](Cc1ccncc1)NC(=O)[C@H](CC(=O)O)NC(=O)[C@H](CO)NC(=O)[C@@H](NC(=O)[C@](C)(Cc1ccccc1F)NC(=O)[C@@H](NC(=O)CNC(=O)[C@H](CCC(=O)O)NC(=O)C(C)(C)NC(=O)[C@@H](N)Cc1ccc(O)cc1)[C@@H](C)O)[C@@H](C)O)[C@@H](C)CC)[C@@H](C)CC)C(=O)N[C@@H](CCCCNC(=O)CCOCCOCCOCCOCCOCCNC(=O)CC[C@H](NC(=O)CCCCCCCCCOc1ccc(C(=O)O)cc1)C(=O)O)C(=O)NCC(=O)NCC(=O)N1CCC[C@H]1C(=O)N[C@@H](CO)C(=O)N[C@@H](CO)C(=O)NCC(=O)N[C@@H](C)C(=O)N1CCC[C@H]1C(=O)N1CCC[C@H]1C(=O)N1CCC[C@H]1C(=O)N[C@@H](CO)C(N)=O` [Example 469], the maximal effect (Emax) is 82.1% at hGIPR (HEK293, read-out: hGIPR Emax, % ± SEM, cAMP, 37° C., 0.1% bovine casein and 1.0% human serum albumin, percent of maximal response to GIP(1-42)NH2); 93.8% at hGLP-1R (HEK293, read-out: hGLP-1R Emax, % ± SEM, cAMP, 37° C., 0.1% bovine casein and 1.0% human serum albumin); 111% on hGLP-1R (HEK293, read-out: hGLP-1R Emax, % ± SEM, cAMP, 37° C., 0.1% bovine casein, arithmetic mean). Moreover, the EC50 is 0.0121 nM at hGIPR (hGIPR EC50, nM (SEM, n), 37° C., 0.1% bovine casein (no human serum albumin), geometric mean); 0.161 nM at hGLP-1R (hGLP-1R EC50, nM (SEM, n), 37° C., 0.1% bovine casein (no human serum albumin), geometric mean); 2.33 nM on hGLP-1R (hGLP-1R EC50, nM (SEM, n), 37° C., 0.1% bovine casein and 1.0% human serum albumin, geometric mean (SEM, n)); > 9950 nM on hGCGR (hGCGR EC50, nM (SEM, n), cAMP, 37° C., 0.1% bovine casein (no human serum albumin), geometric mean); > 9950 nM at hGCGR (hGCGR EC50, nM (SEM, n), cAMP, 37° C., 0.1% bovine casein and 1.0% human serum albumin, geometric mean (SEM, n)).

Consider `CC[C@H](C)[C@H](NC(=O)[C@H](CC(C)C)NC(=O)[C@](C)(Cc1ccc(O)cc1)NC(=O)[C@@H](CCC(=O)O)NC(=O)[C@@H](NC(=O)[C@H](Cc1ccccc1)NC(=O)[C@H](CCC(=O)O)NC(=O)C(C)(C)NC(=O)[C@H](CCC(N)=O)NC(=O)[C@H](C)NC(=O)[C@H](CCCCNC(=O)COCCOCCNC(=O)COCCOCCNC(=O)CC[C@H](NC(=O)CCCCCCCCCOc1ccc(C(=O)O)cc1)C(=O)O)NC(=O)[C@H](CCCN)NC(=O)[C@H](CC(=O)O)NC(=O)[C@H](CC(C)C)NC(=O)[C@](C)(CC(C)C)NC(=O)[C@@H](NC(=O)C(C)(C)NC(=O)[C@H](Cc1ccncc1)NC(=O)[C@H](CC(=O)O)NC(=O)[C@H](CO)NC(=O)[C@@H](NC(=O)[C@](C)(Cc1ccccc1F)NC(=O)[C@@H](NC(=O)CNC(=O)[C@H](CCC(=O)O)NC(=O)C(C)(C)NC(=O)[C@@H](N)Cc1ccc(O)cc1)[C@@H](C)O)[C@@H](C)O)[C@@H](C)CC)[C@@H](C)CC)C(=O)N[C@@H](CCCCNC(=O)COCCOCCNC(=O)COCCOCCNC(=O)CC[C@H](NC(=O)CCCCCCCCCOc1ccc(C(=O)O)cc1)C(=O)O)C(=O)NCC(=O)NCC(=O)N1CCC[C@H]1C(=O)N[C@@H](CO)C(=O)N[C@@H](CO)C(=O)NCC(=O)N[C@@H](C)C(=O)N1CCC[C@H]1C(=O)N1CCC[C@H]1C(=O)N1CCC[C@H]1C(=O)N[C@@H](CO)C(N)=O` [Example 244], for which the maximal effect (Emax) on hGIPR (HEK293, read-out: hGIPR Emax, % ± SEM, 0.1% bovine casein and 1.0% human serum albumin, 37° C., percent of maximal response to GIP(1-42)NH2) stood at 89.5%; at hGLP-1R (HEK293, read-out: hGLP-1R Emax, % ± SEM, 0.1% bovine casein and 1.0% human serum albumin, 37° C.), 96.3%. The EC50 was 0.0218 nM at hGIPR (setting [1]); 2.25 nM on hGLP-1R (setting [2]); > 9950 nM at hGCGR (hGCGR EC50, nM (SEM, n), 0.1% bovine casein and 1.0% human serum albumin, 37° C., geometric mean); > 9950 nM at hGCGR (setting [3]).

With `CC[C@H](C)[C@H](NC(=O)[C@H](CCCN)NC(=O)[C@H](CC(=O)O)NC(=O)[C@H](CC(C)C)NC(=O)[C@](C)(CC(C)C)NC(=O)[C@@H](NC(=O)C(C)(C)NC(=O)[C@H](Cc1ccncc1)NC(=O)[C@H](CC(=O)O)NC(=O)[C@H](CO)NC(=O)[C@@H](NC(=O)[C@](C)(Cc1ccccc1F)NC(=O)[C@@H](NC(=O)CNC(=O)[C@H](CCC(=O)O)NC(=O)C(C)(C)NC(=O)[C@@H](N)Cc1ccc(O)cc1)[C@@H](C)O)[C@@H](C)O)[C@@H](C)CC)C(=O)N[C@@H](C)C(=O)N[C@@H](CCC(N)=O)C(=O)NC(C)(C)C(=O)N[C@@H](CCC(=O)O)C(=O)N[C@@H](Cc1ccccc1)C(=O)N[C@H](C(=O)N[C@@H](CCCCNC(=O)COCCOCCNC(=O)COCCOCCNC(=O)COCCOCCNC(=O)CC[C@H](NC(=O)CCCCCCCCCCCCC(=O)O)C(=O)O)C(=O)N[C@@](C)(Cc1ccc(O)cc1)C(=O)N[C@@H](CC(C)C)C(=O)N[C@H](C(=O)N[C@@H](CCCCNC(=O)COCCOCCNC(=O)COCCOCCNC(=O)COCCOCCNC(=O)CC[C@H](NC(=O)CCCCCCCCCCCCC(=O)O)C(=O)O)C(=O)NCC(=O)NCC(=O)N1CCC[C@H]1C(=O)N[C@@H](CO)C(=O)N[C@@H](CO)C(=O)NCC(=O)N[C@@H](C)C(=O)N1CCC[C@H]1C(=O)N1CCC[C@H]1C(=O)N1CCC[C@H]1C(=O)N[C@@H](CO)C(N)=O)[C@@H](C)CC)[C@@H](C)CC` [Example 342], the maximal response (Emax) is 89.3% on hGIPR (HEK293, cAMP, 37° C., 0.1% bovine casein and 1.0% human serum albumin, percent of maximal response to GIP(1-42)NH2, read-out: hGIPR Emax, % ± SEM); 113% on hGLP-1R (HEK293, cAMP, 37° C., 0.1% bovine casein, arithmetic mean, read-out: hGLP-1R Emax, % ± SEM). The EC50 is 0.0105 nM at hGIPR (37° C., 0.1% bovine casein (no human serum albumin), geometric mean, read-out: hGIPR EC50, nM (SEM, n)); 1.04 nM on hGIPR (37° C., 0.1% bovine casein and 1.0% human serum albumin, geometric mean (SEM, n), read-out: hGIPR EC50, nM (SEM, n)); 0.191 nM at hGLP-1R (37° C., 0.1% bovine casein (no human serum albumin), geometric mean, read-out: hGLP-1R EC50, nM (SEM, n)); 13.6 nM on hGLP-1R (37° C., 0.1% bovine casein and 1.0% human serum albumin, geometric mean (SEM, n), read-out: hGLP-1R EC50, nM (SEM, n)); > 10100 nM on hGCGR (cAMP, 37° C., 0.1% bovine casein (no human serum albumin), geometric mean, read-out: hGCGR EC50, nM (SEM, n)); > 9950 nM on hGCGR (cAMP, 37° C., 0.1% bovine casein and 1.0% human serum albumin, geometric mean (SEM, n), read-out: hGCGR EC50, nM (SEM, n)).
